# Measurements: PMC12377202, “Design, synthesis, and cytotoxic evaluation of quinazoline-based derivatives as VEGER-2 inhibitors: comparative study against EGFR kinase activity, induction of apoptosis, and molecular docking study” (RSC Advances, 2025)
# Assays:
# Assay type in all cases: cell-based, human
# [1] = test system: HEK-293; test: MTT cytotoxicity against normal cells
# [2] = MTT cytotoxicity against normal cells; conditions: human, HEK-293 cells (normal human embryonic kidney)
# [3] = test system: HepG-2; test: MTT anti-proliferative assay, HepG-2; conditions: Homo sapiens
# [4] = test system: MCF-7; test: MTT anti-proliferative assay, MCF-7; conditions: Homo sapiens
# [5] = test system: K-562; test: MTT anti-proliferative assay, K-562; conditions: Homo sapiens, K562
structure (smiles),measurement,setting,value
"CNC(=O)c1cc(Oc2ccc(NC(=O)Nc3ccc(Cl)c(C(F)(F)F)c3)cc2)ccn1 [Sorafenib, sorafenib, reference compound]",Toxicity %,"[1]; HEK-293, 0.078 umol/ml",30.65%
same,Toxicity %,"[1]; HEK-293, 0.156 umol/ml",59.15%
same,Toxicity %,"[1]; HEK-293, 0.313 umol/ml",69.11%
same,Toxicity %,"[1]; HEK-293, 0.625 umol/ml",82.43%
same,Toxicity %,"[1]; HEK-293, 1.25 umol/ml",86.92%
same,Toxicity %,"[1]; HEK-293, 2.5 umol/ml",89.65%
same,Toxicity %,"[1]; HEK-293, 10 umol/ml",93.7%
same,Toxicity %,"[1]; HEK-293, 50 umol/ml",91.36%
same,IC50,"[1]; Homo sapiens, HEK293, raw data, HEK-293",131000 nM
same,"viability at 3 days, 0.078 umol/ml","[2]; HEK-293, 0.078 umol/ml",69.4%
same,"viability at 3 days, 0.156 umol/ml","[2]; HEK-293, 0.156 umol/ml",40.8%
same,"viability at 3 days, 0.313 umol/ml","[2]; HEK-293, 0.313 umol/ml",30.9%
same,"viability at 3 days, 0.625 umol/ml","[2]; HEK-293, 0.625 umol/ml",17.6%
same,"viability at 3 days, 1.25 umol/ml","[2]; HEK-293, 1.25 umol/ml",13.1%
same,"viability at 3 days, 2.5 umol/ml","[2]; HEK-293, 2.5 umol/ml",10.3%
same,"viability at 3 days, 10 umol/ml","[2]; HEK-293, 10 umol/ml",6.3%
same,"viability at 3 days, 50 umol/ml","[2]; HEK-293, 50 umol/ml",8.64%
same,viability at 78 µM,"[3]; HepG2, 0.078 umol/ml",51.7%
same,cytotoxicity at 0.078 µM,"[3]; HepG2, 0.078 umol/ml, read-out: Toxicity %",48.3%
same,viability at 0.313 µM,"[3]; HepG2, 0.313 umol/ml",16.5%
same,viability at 0.625 µM,"[3]; HepG2, 0.625 umol/ml",11.1%
same,cytotoxicity at 2500 µM,"[3]; HepG2, 2.5 umol/ml, read-out: Toxicity %",92.1%
same,cytotoxicity at 10000 µM,"[3]; HepG2, 10 umol/ml, read-out: Toxicity %",93.1%
same,IC50,"[4]; MCF7, MTT, MCF-7, read-out: Cytotoxicity against cancer cells IC50 MCF-7",128 ± 3.1 nM
same,viability at 78 µM,"[4]; MCF7, 0.078 umol/ml",71.5%
same,cytotoxicity at 78 µM,"[4]; MCF7, 0.078 umol/ml, read-out: Toxicity %",28.5%
same,viability,"[4]; MCF7, 0.313 umol/ml",25.7%
same,cytotoxicity at 0.313 µM,"[4]; MCF7, 0.313 umol/ml, read-out: Toxicity %",74.3%
same,viability,"[4]; MCF7, 0.625 umol/ml",16.1%
same,cytotoxicity at 2500 µM,"[4]; MCF7, 2.5 umol/ml, read-out: Toxicity %",89.1%
same,cytotoxicity at 10000 µM,"[4]; MCF7, 10 umol/ml, read-out: Toxicity %",91.8%
same,viability at 78 µM,"[5]; K-562, 0.078 umol/ml",38.9%
same,cytotoxicity at 78 µM,"[5]; K-562, 0.078 umol/ml, read-out: Toxicity %",61.1%
same,viability at 0.313 µM,"[5]; K-562, 0.313 umol/ml",12.3%
same,viability at 0.625 µM,"[5]; K-562, 0.625 umol/ml",9.18%
same,cytotoxicity at 2500 µM,"[5]; K-562, 2.5 umol/ml, read-out: Toxicity %",92.1%
same,cytotoxicity at 10000 µM,"[5]; K-562, 10 umol/ml, read-out: Toxicity %",92.9%
same,IC50,"[5]; MTT, K-562, read-out: Cytotoxicity against cancer cells IC50 K-562",60.6 ± 2.6 nM
